# Measured values published in patent publication US20250215039A1, “NUCLEOSIDES FOR TREATING CANCER” (PRIMEFOUR THERAPEUTICS, INC., priority 2022, published 2025).
# Read-outs that look alike come from different tables or passages of the source.
# Tested on: cancer cell lines
# Assay: Cancer cell proliferation activity (CellTiterGlo, 72 h)
# Type: cell-based
# Details: 72 h, 72 h, read-out: IC50
# Procedure: Dose response relationships on cell proliferation was assessed for representative Compounds of the Disclosure on cancer cell lines. Briefly, compound treatment of cells started one day after seeding with a final DMSO concentration of 0.1%, and was performed by nanodrop-dispensing using a Tecan Dispenser. 0.1% DMSO (solvent) and Staurosporine (10 μM) served as high control (100% viability) and low control (0% viability), respectively.
# Cells were cultured in the appropriate media. For the assays, cells were seeded in white cell culture-treated flat and clear bottom multiwell plates and incubated at 37° C. overnight before compound was added. After incubation for 72 h at 37° C. at 5% or 10% CO2 dependent on the medium, cell plates were equilibrated to room temperature for one hour, CellTiterGlo reagent (Promega) was added and luminescence was measured approximately an hour later using a luminometer.
# Raw data were converted into percent cell viability relative to the high and low control, which were set to 100% and 0%, respectively.
# The IC50 values are summarized in Tables 9A-1, Table 10A, and Table 10B.
smiles,measurement,setting,value
"CC[C@]1(CO)O[C@@H](n2cnc3c(N)nc(F)nc32)C[C@@H]1O [Cpd. No. 1, (2R,3S,5R)-5-(6-amino-2-fluoro-9H-purin-9-yl)-2-ethyl-2-(hydroxymethyl)tetrahydrofuran-3-ol]",IC50,5637 cell line (bladder),880 nM
same,IC50,CLS439 cell line (bladder),> 50000 nM
same,IC50,HS729 cell line (muscle),1240 nM
same,IC50,JAR cell line (placenta),440 nM
same,IC50,"U20S cell line, bone",840 nM
same,IC50,"Homo sapiens, 22Rv1, 72 h, 22RV1 cell line (prostate)",1860 nM
same,IC50,"Homo sapiens, 786-0, 72 h, 786O cell line (kidney)",620 nM
same,IC50,"Homo sapiens, A204, 72 h, A204 cell line (muscle)",550 nM
same,IC50,"Homo sapiens, A549, 72 h, A549 cell line, lung",> 50000 nM
same,IC50,"Homo sapiens, A673, 72 h, A673 cell line (bone)",2560 nM
same,IC50,"Homo sapiens, A2780, 72 h, A2780 cell line (ovary)",910 nM
same,IC50,"Homo sapiens, A-375, 72 h, A375 cell line (skin)",530 nM
same,IC50,"Homo sapiens, A-431, 72 h, A431 cell line (skin)",530 nM
same,IC50,"Homo sapiens, ACHN, ACHN cell line (kidney)",> 50000 nM
same,IC50,"Homo sapiens, ASPC1, 72 h, ASPC1 cell line (pancreas)",470 nM
same,IC50,"Homo sapiens, BT-20, 72 h, BT20 cell line (breast)",550 nM
same,IC50,"Homo sapiens, C-33-A, C33A cell line, endometrial",950 nM
same,IC50,"Homo sapiens, CAKI-1, 72 h, CAKI1 cell line (kidney)",60 nM
same,IC50,"Homo sapiens, COLO 205, 72 h, COLO205 cell line (colon)",1060 nM
same,IC50,"Homo sapiens, COLO-678, 72 h, COLO678 cell line (colon)",> 50000 nM
same,IC50,"Homo sapiens, Ca-Ski, CASKI cell line, endometrial",310 nM
same,IC50,"Homo sapiens, Caco-2, 72 h, CACO2 cell line (colon)",1040 nM
same,IC50,"Homo sapiens, Calu-6, 72 h, CALU6 cell line (lung)",650 nM
same,IC50,"Homo sapiens, DLD-1, 72 h, DLD1 cell line (colon)",2070 nM
same,IC50,"Homo sapiens, DU-145, 72 h, DU145 cell line (prostate)",190 nM
same,IC50,"Homo sapiens, EFO-21, 72 h, EFO21 cell line (ovary)",520 nM
same,IC50,"Homo sapiens, EJ-28, 72 h, EJ28 cell line (bladder)",490 nM
same,IC50,"Homo sapiens, Granta-519, 72 h, GRANTA-519 cell line (hematological)",> 50000 nM
same,IC50,"Homo sapiens, HCT-15, 72 h, HCT15 cell line (colon)",2780 nM
same,IC50,"Homo sapiens, HCT-116, 72 h, HCT116 cell line (colon)",820 nM
same,IC50,"Homo sapiens, HEK293, 72 h, HEK293 cell line (kidney)",710 nM
same,IC50,"Homo sapiens, HL-60, 72 h, HL-60 cell line (hematological)",830 nM
same,IC50,"Homo sapiens, HT-29, 72 h, HT29 cell line (colon)",530 nM
same,IC50,"Homo sapiens, HT-1080, 72 h, HT1080 cell line (connective tissue)",> 50000 nM
same,IC50,"Homo sapiens, HeLa, HELA cell line, endometrial",1070 nM
same,IC50,"Homo sapiens, HepG2, 72 h, HEPG2 cell line (liver)",670 nM
same,IC50,"Homo sapiens, Hs-578T, HS578T cell line, breast",850 nM
same,IC50,"Homo sapiens, IGROV-1, 72 h, IGROV1 cell line (ovary)",380 nM
same,IC50,"Homo sapiens, IMR-90, 72 h, IMR90 cell line, lung",640 nM
same,IC50,"Homo sapiens, J82, 72 h, J82 cell line (bladder)",540 nM
same,IC50,"Homo sapiens, JEG-3, 72 h, JEG3 cell line (placenta)",670 nM
same,IC50,"Homo sapiens, JIMT-1, 72 h, JIMT1 cell line (breast)",160 nM
same,IC50,"Homo sapiens, K562, 72 h, K-562 cell line (hematological)",> 50000 nM
same,IC50,"Homo sapiens, Kasumi 1, 72 h, KASUMI-1 cell line (hematological)",150 nM
same,IC50,"Homo sapiens, L-363, 72 h, L-363 cell line (hematological)",570 nM
same,IC50,"Homo sapiens, LoVo, LOVO cell line (colon)",290 nM
same,IC50,"Homo sapiens, MCF7, 72 h, MCF7 cell line (breast)",> 50000 nM
same,IC50,"Homo sapiens, MDA-MB-231, 72 h, MDAMB231 cell line (breast)",> 50000 nM
same,IC50,"Homo sapiens, MDA-MB-435, 72 h, MDAMB435 cell line (skin)",1720 nM
same,IC50,"Homo sapiens, MDA-MB-436, 72 h, MDAMB436 cell line (breast)",370 nM
same,IC50,"Homo sapiens, MDA-MB-468, 72 h, MDAMB468 cell line (breast)",690 nM
same,IC50,"Homo sapiens, MG-63, 72 h, MG63 cell line (bone)",> 50000 nM
same,IC50,"Homo sapiens, MHH-ES-1, 72 h, MHHES1 cell line (bone)",600 nM
same,IC50,"Homo sapiens, MIA PaCa-2, 72 h, MIAPACA2 cell line (pancreas)",> 50000 nM
same,IC50,"Homo sapiens, MINO, MINO cell line (hematological)",250 nM
same,IC50,"Homo sapiens, MV4-11, 72 h, MV4-11 cell line (hematological)",170 nM
same,IC50,"Homo sapiens, NCI-H23, 72 h, NCI-H23 cell line (lung)",830 nM
same,IC50,"Homo sapiens, NCI-H82, 72 h, NCIH82 cell line (lung)",610 nM
same,IC50,"Homo sapiens, NCI-H292, 72 h, NCIH292 cell line (lung)",> 50000 nM
same,IC50,"Homo sapiens, NCI-H460, 72 h, NCIH460 cell line (lung)",970 nM
same,IC50,"Homo sapiens, OVCAR-3, 72 h, OVCAR3 cell line (ovary)",260 nM
same,IC50,"Homo sapiens, OVCAR-4, 72 h, OVCAR4 cell line (ovary)",960 nM
same,IC50,"Homo sapiens, PANC-1, 72 h, PANC1 cell line (pancreas)",> 50000 nM
same,IC50,"Homo sapiens, PC-3, 72 h, PC3 cell line (prostate)",870 nM
same,IC50,"Homo sapiens, PLC-PRF-5, 72 h, PLCPRF5 cell line (liver)",3200 nM
same,IC50,"Homo sapiens, Panc1005, 72 h, PANC1005 cell line (pancreas)",440 nM
same,IC50,"Homo sapiens, RD, RD cell line (muscle)",1460 nM
same,IC50,"Homo sapiens, Ramos, RAMOS cell line (hematological)",940 nM
same,IC50,"Homo sapiens, SAOS-2, 72 h, SAOS2 cell line (bone)",640 nM
same,IC50,"Homo sapiens, SF-268, 72 h, SF268 cell line (brain)",> 50000 nM
same,IC50,"Homo sapiens, SF-295, 72 h, SF295 cell line (brain)",1420 nM
same,IC50,"Homo sapiens, SK-BR-3, 72 h, SKBR3 cell line (breast)",150 nM
same,IC50,"Homo sapiens, SK-HEP1, 72 h, SKHEP1 cell line (liver)",> 50000 nM
same,IC50,"Homo sapiens, SK-LMS-1, 72 h, SKLMS1 cell line (uterus)",470 nM
same,IC50,"Homo sapiens, SK-MEL-5, 72 h, SKMEL5 cell line, skin",> 50000 nM
same,IC50,"Homo sapiens, SK-MEL-28, 72 h, SKMEL28 cell line (skin)",1260 nM
same,IC50,"Homo sapiens, SK-N-AS, SKNAS cell line (brain)",1140 nM
same,IC50,"Homo sapiens, SK-N-SH, SKNSH cell line (brain)",750 nM
same,IC50,"Homo sapiens, SK-OV-3, 72 h, SKOV3 cell line (ovary)",760 nM
same,IC50,"Homo sapiens, SNB-75, 72 h, SNB75 cell line (brain)",2370 nM
same,IC50,"Homo sapiens, SU-DHL10, 72 h, SU-DHL-10 cell line (hematological)",120 nM
same,IC50,"Homo sapiens, SU-DHL-6, 72 h, SU-DHL-6 cell line (hematological)",430 nM
same,IC50,"Homo sapiens, SW-620, 72 h, SW620 cell line (colon)",730 nM
same,IC50,"Homo sapiens, T-24, 72 h, T24 cell line (bladder)",1460 nM
same,IC50,"Homo sapiens, TE-671, 72 h, TE671 cell line (muscle)",4780 nM
same,IC50,"Homo sapiens, THP-1, 72 h, THP-1 cell line (hematological)",> 50000 nM
same,IC50,"Homo sapiens, U-87 MG, U87MG cell line (brain)",> 50000 nM
same,IC50,"Homo sapiens, UMUC3, 72 h, UMUC3 cell line (bladder)",> 50000 nM
same,IC50,"Homo sapiens, UO-31, 72 h, UO31 cell line (kidney)",630 nM
same,IC50,"Homo sapiens, WSU-NHL, WSU-NHL cell line (hematological)",720 nM
same,IC50,"MT-3, 72 h, MT3 cell line (breast)",510 nM
same,IC50,"NCI-H358M, NCIH358M cell line (lung)",560 nM
same,IC50,"PBMC, PBMC (hematological)",310 nM
same,IC50,"RD-ES, RDES cell line (bone)",410 nM
